According to US10400263B2, “Tripeptide rhodamine compound” (Kingston Uninversity Higher Education Corporation, priority 2012, dated 2019):

Assays:
S. hominus = experiment: LGX system, S. hominus; type: cell-based
Description: (§1) Each sample was rinsed liberally in sterile 1×PBS and varying concentrations of bacterial suspension from 10^0-10^6 were generated by serial dilution in 1×PBS. Additionally, bacterial cultures were furthermore maintained on nutrient agar to assess the coagulase status of the isolate.
(§2) To determine the effects of varying bacterial concentrations with respect to bacterial strains and concentrations of the compounds according to the present invention on staphylocoagulase activity, 100 and 50 μM solutions containing LGX were prepared in 1×PBS with the addition of 0.05 M Tris Buffer and 0.1 M NaCl to maintain a pH of 8.5 using LGX dissolved in MeOH so that final concentration of methanol was no more than 2.5%. […]
(§3) The plate reader used was a Fluostar Optima, and the plates used were Nunclon Surface 96 well plates. […]
(§4) To determine the effects of varying bacterial concentrations with respect to bacterial strains and LGX concentrations on staphylocoagulase activity, 100 and 50 μM solutions of LGX were prepared in 1×PBS with the addition of 0.05 M Tris Buffer and 0.1 M NaCl to maintain a pH of 8.5 using LGX dissolved in MeOH so that final concentration of methanol was no more than 2.5%. […] The plate reader used was a Fluostar Optima, and the plates used were Nunclon Surface 96 well plates.

S. warneri = experiment: LGX system, S. warneri; type: cell-based
Description: as §1, §2, §3, §4

E. coli = experiment: LGX staphylocoagulase fluorescence assay, E. coli strains; type: cell-based; details: for fluorescence over the 6 hour time period: high and low concentrations
Description: as §1
(§5) To determine the effects of varying bacterial concentrations with respect to bacterial strains and concentrations of the compounds according to the present invention on staphylocoagulase activity, 100 and 50 μM solutions containing LGX were prepared in 1×PBS with the addition of 0.05 M Tris Buffer and 0.1 M NaCl to maintain a pH of 8.5 using LGX dissolved in MeOH so that final concentration of methanol was no more than 2.5%. Furthermore, an appropriate concentration (100 μM and 50 μM, respectively) of human prothrombin was added to the solution.
(§6) The plate reader used was a Fluostar Optima, and the plates used were Nunclon Surface 96 well plates. Positive controls for each experiment was a strain of MRSA, and the negative control for each experiment was a strain of E. coli, both of which were picked at random to ensure there was no bias within the data. A 1:1 ratio of the LGX solution with PBS was also assayed as “LGX alone” sample, which has been designated as a black line on the graphs below. n=3 cultures were assayed in each case.
(§7) Clinical isolates of Methicillin Resistant Staphylococcus Aureus (MRSA), Methicillin Sensitive Staphylococcus Aureus (MSSA), Staphylococcus Epidermidis, Eschericia coli and other staphyloccal species were cultured on nutrient agar prior to being grown overnight in nutrient broth under shaking conditions at 37° C. Each sample was rinsed liberally in sterile 1×PBS and varying concentrations of bacterial suspension from […] were generated by serial dilution in 1×PBS. Additionally, bacterial cultures were furthermore maintained on nutrient agar to assess the coagulase status of the isolate.
as §4, with “2.5%. Furthermore, an appropriate concentration (100 μM and 50 μM, respectively) of human prothrombin was added to the solution. 90 μl of LGX solution in addition to each respective bacterial isolate at varying concentrations was added to a microtitre plate.” for “2.5%.”

MRSA = experiment: LGX staphylocoagulase fluorescence assay, MRSA isolates; type: cell-based, Staphylococcus aureus
Description: as §1, §5, §6, §7
as §4, with “2.5%. Furthermore, an appropriate concentration (100 μM and 50 μM, respectively) of human prothrombin was added to the solution. 90 μl of LGX solution in addition to each respective bacterial isolate at varying concentrations was added to a microtitre plate.” for “2.5%.”

`CC(C)[C@H](NC(=O)OC(C)(C)C)C(=O)N1CCC[C@H]1C(=O)N[C@@H](CCCNC(=N)N)C(=O)Nc1ccc2c(c1)Oc1cc(NC(=O)[C@H](CCCNC(=N)N)NC(=O)[C@@H]3CCCN3C(=O)[C@@H](NC(=O)OC(C)(C)C)C(C)C)ccc1C21OC(=O)c2ccccc21` (stereo partly drawn) [LGX, Rho-(Arg-Pro-Val-NHBoc)2] was tested, and the “LGX SYSTEM” value (S. hominus) was “−”, the “LGX SYSTEM” value (S. warneri) was “−” and the “fluorescence over the duration of the experiment” value (E. coli; 50 μM LGX, E. coli strains 10^6, 10^5, 10^3 and 10^2, FIG. 6) was “remain consistently low”. The “fluorescence over the 6 hour time period” value (E. coli; 50 μM LGX, E. coli, FIG. 13) was “no increase in fluorescence was observed”, the “samples above 20,000 fluorescence units after 1 hour” value (E. coli; 50 μM LGX, all concentrations of bacteria, E. coli) was 0% and the “fluorescence response within 1 hour” value (E. coli; 50 μM or 100 μM LGX, E. coli) was ≤ 5000 fluorescence units. The “fluorescence across the 6 hour time period” value (E. coli; 100 μM LGX, E. coli strains, FIG. 7) was “remained consistently low”, the “fluorescence over the 6 hour time period” value (E. coli; 100 μM LGX, E. coli, FIG. 14) was “no increase in fluorescence was observed” and the “LGX SYSTEM” value (E. coli; E. COLI) was “−”. For the same molecule, the “samples failed to reach maximum fluorescence within the 6 hour time frame” value (MRSA; 50 μM LGX, MRSA 10^2) was 60%, the “samples reaching the maximum reading of 65,000 RFU within 4 hours” value (MRSA; 50 μM LGX, MRSA 10^2) was 40% and the “samples failed to reach maximum fluorescence within the 6 hour time frame” value (MRSA; 50 μM LGX, MRSA 10^3) was 40%. The “samples reaching the maximum reading of 65,000 RFU within 4 hours” value (MRSA; 50 μM LGX, MRSA 10^3) was 60%, the “samples failed to reach maximum fluorescence within 5 hours” value (MRSA; 50 μM LGX, MRSA 10^5) was 20% and the “samples reaching the maximum reading of 65,000 RFU within 2 hours” value (MRSA; 50 μM LGX, MRSA 10^5) was 60%. For the same molecule, the “samples failed to reach maximum” value (MRSA; 50 μM LGX, MRSA 10^6) was 10%, the “samples reaching the maximum reading of 65,000 RFU within 2 hours” value (MRSA; 50 μM LGX, MRSA 10^6) was 90% and the “time by which maximum fluorescence level was reached, all samples” value (MRSA; 50 μM LGX, MRSA 10^6) was ≤ 2 h. The “time for fluorescence readings to reach a maximum” value (MRSA; 50 μM LGX, MRSA positive control at 10^6, 10^5 and 10^3) was “almost immediately or within an hour”, the “time for fluorescence readings to reach a maximum” value (MRSA; 50 μM LGX, MRSA positive control, lower concentrations) was 6 h and the “samples achieving a fluorescence reading of 20,000 within 1 hour” value (MRSA; 100 μM LGX, MRSA 10^2) was 95%. The “samples in which fluorescence reached its upper limits within 4 hours” value (MRSA; 100 μM LGX, MRSA 10^2) was 40%, the “time for fluorescence to reach a maximum” value (MRSA; 100 μM LGX, MRSA 10^2, FIG. 14) was “approximately 3 hours” and the “samples in which fluorescence reached its upper limits within 3 hours” value (MRSA; 100 μM LGX, MRSA 10^3) was 40%. The “MRSA reaching maximum fluorescence over the 6 hours time period” value (MRSA; 100 μM LGX, MRSA 10^4) was 90%, the “samples in which fluorescence reached its upper limits within 2 hours” value (MRSA; 100 μM LGX, MRSA 10^4) was 50% and the “isolates failed to reach maximum fluorescence over 6 hours” value (MRSA; 100 μM LGX, MRSA lower concentrations of 10^3 and 10^4 (so in the source)) was 40%. For the same molecule, the “time for fluorescence to reach a maximum” value (MRSA; 100 μM LGX, MRSA positive control, all concentrations (10^4, 10^3 and 10^3 as printed)) was ≤ 3 h and the “LGX SYSTEM” value (MRSA; MRSA, detection of coagulase positive samples) was “+”.
